Data: publication PMC6001238, “Iterative Chemical Engineering of Vancomycin Leads to Novel Vancomycin Analogs With a High in Vitro Therapeutic Index” (Frontiers in Microbiology, 2018)
Values after ≈ are worked out from the molar mass of the structure shown.

Experiments:
E. faecalis VRE 6 = experiment: MIC, broth microdilution, vancomycin-resistant E. faecalis VRE 6 (VanA); type: cell-based, Enterococcus faecalis; details: for MIC: Enterococcus faecalis VRE 6 (vancomycin-resistant), read-out: MIC; for MIC-fold improvement vs. vancomycin: VRE 6, ratio of MIC of vancomycin and MIC of analogue
Outline: (§1)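 MIC values come from broth microdilution run to CLSI susceptibility-testing standards. Ultrapure water and uninoculated broth served as controls. In one series, vancomycin at a final 10 μM was co-dosed with the analogue or comparator antibiotic.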

E. faecalis VRE 53 = experiment: MIC, broth microdilution, vancomycin-resistant E. faecalis VRE 53 (VanA); type: cell-based, Enterococcus faecalis; details: for MIC: Enterococcus faecalis VRE 53 (vancomycin-resistant), read-out: MIC; for MIC-fold improvement vs. vancomycin: VRE 53, ratio of MIC of vancomycin and MIC of analogue
Outline: as §1

S. aureus VRSA = experiment: MIC, broth microdilution, vancomycin-resistant S. aureus (VRSA); type: cell-based, Staphylococcus aureus; details: for MIC: Staphylococcus aureus VRSA, read-out: MIC; for MIC-fold improvement vs. vancomycin: VRSA, ratio of MIC of vancomycin and MIC of analogue
Outline: as §1

[1] = system: S. aureus VSSA (ATCC 6538); experiment: MIC, broth microdilution, vancomycin-sensitive S. aureus (VSSA/MSSA, ATCC 6538); type: cell-based, Staphylococcus aureus; details: for MIC: Staphylococcus aureus VSSA, read-out: MIC; for MIC-fold improvement vs. vancomycin: VSSA, ratio of MIC of vancomycin and MIC of analogue
Outline: as §1

MRSA KS1 = experiment: MIC, broth microdilution, MRSA KS1; type: cell-based, Staphylococcus aureus; details: for MIC-fold improvement vs. vancomycin: MRSA KS1, ratio of MIC of vancomycin and MIC of analogue; for MIC: Staphylococcus aureus MRSA KS1, read-out: MIC
Outline: as §1

[2] = system: human T-lymphocyte (CEM) cells; experiment: Cytostatic activity, CEM cell proliferation; type: cell-based; details: mean ± SD of three experiments; highest concentration tested 250 µM; 3 days; read-out: Toxicity (IC50) CEM
Outline: (§2)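 Test compounds, serially diluted, received an equal volume of cell suspension at 300,000–500,000 cells/mL. After 37°C incubation (2 days for L1210, 3 for CEM, 4 for HeLa), cells were enumerated by Coulter counting and 50%-inhibitory concentrations calculated per cell type.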

[3] = system: human cervix carcinoma (HeLa) cells; experiment: Cytostatic activity, HeLa cell proliferation; type: cell-based; details: mean ± SD of three experiments; highest concentration tested 250 µM; 4 days; read-out: Toxicity (IC50) HeLa
Outline: as §2

[4] = system: L1210, CEM and HeLa cell lines; experiment: Cytostatic activity, average or summary over L1210, CEM and HeLa; type: cell-based; details: average of L1210, CEM and HeLa; read-out: Toxicity (IC50) Average
Outline: as §2

E. faecalis VRE 37 = experiment: MIC, broth microdilution, vancomycin-resistant E. faecalis VRE 37 (VanA); type: cell-based, Enterococcus faecalis; details: for MIC: Enterococcus faecalis VRE 37 (vancomycin-resistant), read-out: MIC
Outline: as §1

E. faecalis VRE 29 = experiment: MIC, broth microdilution, vancomycin-resistant E. faecalis VRE 29 (VanA); type: cell-based, Enterococcus faecalis; details: for MIC: Enterococcus faecalis VRE 29 (vancomycin-resistant), read-out: MIC; for MIC-fold improvement vs. vancomycin: VRE 29, ratio of MIC of vancomycin and MIC of analogue
Outline: as §1

S. aureus VISA/HIP5827 = experiment: MIC, broth microdilution, vancomycin-intermediate S. aureus VISA HIP5827; type: cell-based, Staphylococcus aureus; details: for MIC: Staphylococcus aureus VISA/HIP5827, read-out: MIC; for MIC-fold improvement vs. vancomycin: VISA/HIP5827, ratio of MIC of vancomycin and MIC of analogue
Outline: as §1

E. faecalis VSE 1 = experiment: MIC, broth microdilution, vancomycin-sensitive E. faecalis (VSE 1); type: cell-based, Enterococcus faecalis; details: for MIC: Enterococcus faecalis VSE 1 (vancomycin-sensitive), read-out: MIC; for MIC-fold improvement vs. vancomycin: VSE 1, ratio of MIC of vancomycin and MIC of analogue
Outline: as §1

MRSA KS2 = experiment: MIC, broth microdilution, MRSA KS2; type: cell-based, Staphylococcus aureus; details: for MIC-fold improvement vs. vancomycin: MRSA KS2, ratio of MIC of vancomycin and MIC of analogue; for MIC: Staphylococcus aureus MRSA KS2, read-out: MIC
Outline: as §1

MRSA KS89 = experiment: MIC, broth microdilution, MRSA KS89; type: cell-based, Staphylococcus aureus; details: for MIC-fold improvement vs. vancomycin: MRSA KS8, ratio of MIC of vancomycin and MIC of analogue; for MIC: Staphylococcus aureus MRSA KS8, read-out: MIC
Outline: as §1

[5] = system: Murine leukemia (L1210) cells; experiment: Cytostatic activity, L1210 cell proliferation; type: cell-based; details: mean ± SD of three experiments; highest concentration tested 250 µM; 2 days; read-out: Toxicity (IC50) L1210
Outline: as §2

MRSA KS6 = experiment: MIC, broth microdilution, MRSA KS6; type: cell-based, Staphylococcus aureus; details: for MIC-fold improvement vs. vancomycin: MRSA KS6, ratio of MIC of vancomycin and MIC of analogue; for MIC: Staphylococcus aureus MRSA KS6, read-out: MIC
Outline: as §1

| SMILES | MIC (E. faecalis VRE 6) [µM] | MIC-fold improvement vs. vancomycin (E. faecalis VRE 6) | MIC (E. faecalis VRE 53) [µM] | MIC-fold improvement vs. vancomycin (E. faecalis VRE 53) | MIC (S. aureus VRSA) [µM] | MIC-fold improvement vs. vancomycin (S. aureus VRSA) | MIC [1] [µM] | MIC-fold improvement vs. vancomycin [1] | MIC-fold improvement vs. vancomycin (MRSA KS1) | MIC (MRSA KS1) [µM] | IC50 [2] [µM] | IC50 [3] [µM] | IC50 [4] [µM] | MIC (E. faecalis VRE 37) [µM] | MIC (E. faecalis VRE 29) [µM] | MIC-fold improvement vs. vancomycin (E. faecalis VRE 29) | MIC (S. aureus VISA/HIP5827) [µM] | MIC-fold improvement vs. vancomycin (S. aureus VISA/HIP5827) | MIC (E. faecalis VSE 1) [µM] | MIC-fold improvement vs. vancomycin (E. faecalis VSE 1) | further results |
| --- | --- | --- | --- | --- | --- | --- | --- | --- | --- | --- | --- | --- | --- | --- | --- | --- | --- | --- | --- | --- | --- |
| CNC(CC(C)C)C(=O)NC1C(=O)NC(CC(N)=O)C(=O)NC2C(=O)NC3C(=O)NC(C(=O)NC(C(=O)NCCCNC(=O)c4ccc(-c5ccccc5)cc4)c4cc(O)cc(O)c4-c4cc3ccc4O)C(O)c3ccc(c(Cl)c3)Oc3cc2cc(c3OC2OC(CO)C(O)C(O)C2OC2CC(C)(N)C(O)C(C)O2)Oc2ccc(cc2Cl)C1O (stereo not shown) [Vanc-33] | 1.56 (≈ 2.63 µg/mL) | 128 | 25 (≈ 42.1 µg/mL) | 16 | 0.78 (≈ 1.31 µg/mL) | 128 | 0.20 (≈ 0.337 µg/mL) | 4 | 2 | 0.39 (≈ 0.657 µg/mL) | 78 ± 16 | 84 ± 8 | 73 | 12.5 (≈ 21.1 µg/mL) | 6.25 (≈ 10.5 µg/mL) | 64 | 0.20 (≈ 0.337 µg/mL) | 32 | 0.20 (≈ 0.337 µg/mL) | 8 | MIC-fold improvement vs. vancomycin (MRSA KS2): 4; MIC (MRSA KS2): 0.20 µM (≈ 0.337 µg/mL); MIC-fold improvement vs. vancomycin (MRSA KS89): 2; MIC (MRSA KS89): 0.39 µM (≈ 0.657 µg/mL); IC50 [5]: 57 ± 20 µM; MIC-fold improvement vs. vancomycin (MRSA KS6): 2; MIC (MRSA KS6): 0.39 µM (≈ 0.657 µg/mL) |
| CNC(CC(C)C)C(=O)NC1C(=O)NC(CC(N)=O)C(=O)NC2C(=O)NC3C(=O)NC(C(=O)NC(C(=O)NCCCNC(=O)c4ccc(-c5ccc(-c6ccccc6)cc5)cc4)c4cc(O)cc(O)c4-c4cc3ccc4O)C(O)c3ccc(c(Cl)c3)Oc3cc2cc(c3OC2OC(CO)C(O)C(O)C2OC2CC(C)(N)C(O)C(C)O2)Oc2ccc(cc2Cl)C1O (stereo not shown) [Vanc-35] | 0.39 (≈ 0.687 µg/mL) | 513 | 6.25 (≈ 11 µg/mL) | 64 | 1.56 (≈ 2.75 µg/mL) | 64 | 0.05 (≈ 0.0881 µg/mL) | 16 | 1 | 0.78 (≈ 1.37 µg/mL) | 0.98 ± 0.06 | 17 ± 2 | 7 | 1.56 (≈ 2.75 µg/mL) | 1.56 (≈ 2.75 µg/mL) | 256 | 0.05 (≈ 0.0881 µg/mL) | 128 | 0.20 (≈ 0.352 µg/mL) | 8 | MIC-fold improvement vs. vancomycin (E. faecalis VRE 37; VRE 37, ratio of MIC of vancomycin and MIC of analogue): 256; MIC-fold improvement vs. vancomycin (MRSA KS2): 2; MIC (MRSA KS2): 0.39 µM (≈ 0.687 µg/mL); MIC-fold improvement vs. vancomycin (MRSA KS89): 4; MIC (MRSA KS89): 0.20 µM (≈ 0.352 µg/mL); IC50 [5]: 4.1 ± 0.5 µM; MIC-fold improvement vs. vancomycin (MRSA KS6): 4; MIC (MRSA KS6): 0.20 µM (≈ 0.352 µg/mL) |
